Assay results published in ChEMBL document CHEMBL1201862, “PubChem BioAssay data set” (2004).
The source made the active and inactive calls.

Columns and labels:
Melanocortin receptor 4 = Melanocortin receptor 4 (Homo sapiens, UniProt P32245); format: functional, cell-based;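 note: Cell-based assay with luminescence read-out, confirmatory dose-response testing for agonist activity of biased ligands at MC4R; human U2OS cells with tagged receptor and beta-arrestin; potency of agonists that increase receptor coupling to beta-arrestin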
[1] = reduced cellular PGC1a acetyl-lysine signal – cell-based, cherry-picked samples, dose response (AID 720514); format: functional;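 note: potency may reflect raised or lowered acetylation signal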
[2] = P. falciparum Dd2 growth inhibitors, dose response, SYBR Green, cherry-picked samples (AID 1159567); format: functional, cell-based
[3] = toxicity to human hepatoma HepG2 cells – cell-based, cherry-picked samples, cytotoxicity control, dose response (AID 1159577); format: functional
[4] = activation of miR-122 Renilla sensor silencing – cell-based, Huh7 psiCHECK-miR122, Renilla luciferase, cherry-picked, dose response (AID 651956); format: functional;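 note: huh7 hepatoma cells stably carrying a psiCHECK-2 miR-122 sensor plasmid; renilla luciferase signal reporting endogenous miR-122 activity after 48 h compound exposure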
[5] = general mammalian cell viability loss – activator set, cherry-pick, cytotoxicity control for miR-122 modulator project, dose response (AID 720690); format: functional, cell-based;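 note: HEK293T human cells scored for general mammalian cytotoxicity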
[6] = biological target: T1, Calpain-2 catalytic subunit (Sus scrofa, UniProt P43367); experiment: m-calpain protease blockers, concentration series – biochemical, fluorogenic peptide substrate, dose response (AID 1420); format: functional
T1 sequence (P43367 whole entry): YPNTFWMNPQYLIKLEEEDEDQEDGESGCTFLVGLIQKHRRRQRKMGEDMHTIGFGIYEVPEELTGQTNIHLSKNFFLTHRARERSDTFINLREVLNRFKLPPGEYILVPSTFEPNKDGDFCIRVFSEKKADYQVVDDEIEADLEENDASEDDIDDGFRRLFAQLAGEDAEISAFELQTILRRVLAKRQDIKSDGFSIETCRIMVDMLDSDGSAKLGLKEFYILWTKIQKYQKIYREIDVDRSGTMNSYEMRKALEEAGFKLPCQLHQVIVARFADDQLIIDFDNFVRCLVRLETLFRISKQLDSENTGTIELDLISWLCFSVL

Cytochrome P450 1A2 = biological target: T2, Cytochrome P450 1A2 (Homo sapiens, UniProt P05177);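 note: PubChem cytochrome P450 panel assay, CYP1A2 panel member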
T2 sequence (P05177 whole entry): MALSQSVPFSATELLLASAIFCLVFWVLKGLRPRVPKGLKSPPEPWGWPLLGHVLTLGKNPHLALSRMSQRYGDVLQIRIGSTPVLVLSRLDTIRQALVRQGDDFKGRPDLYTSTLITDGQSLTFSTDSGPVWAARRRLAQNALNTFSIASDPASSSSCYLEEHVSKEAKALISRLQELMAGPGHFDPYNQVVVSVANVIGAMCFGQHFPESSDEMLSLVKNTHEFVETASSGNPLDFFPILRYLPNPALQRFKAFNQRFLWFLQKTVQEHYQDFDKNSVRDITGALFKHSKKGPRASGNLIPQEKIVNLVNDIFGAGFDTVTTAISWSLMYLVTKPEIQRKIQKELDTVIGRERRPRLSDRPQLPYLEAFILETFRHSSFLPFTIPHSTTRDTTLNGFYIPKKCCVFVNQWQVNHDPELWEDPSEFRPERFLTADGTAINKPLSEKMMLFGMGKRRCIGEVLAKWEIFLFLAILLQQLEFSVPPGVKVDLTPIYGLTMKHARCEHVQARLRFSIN

Cytochrome P450 2C9 = Cytochrome P450 2C9 (Homo sapiens, UniProt P11712)
[7] = Luminescence-based cell-based high throughput dose response assay to identify activators of the DAF-12 from the parasite S. stercoralis (ssDAF-12).; format: functional
[8] = biological target: T3, Oxysterols receptor LXR-beta (Homo sapiens, UniProt P55055); format: functional, cell-based;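 note: Cell-based luminescence dose-response assay of agonist activity at LXR, run as a confirmatory counterscreen to a daf-12 agonist screen; HEK293 cells with Gal4-LXR fusion and GAL4-driven luciferase reporter; agonist potency from rising luciferase signal of a Gal4-LXR reporter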
T3 sequence (P55055 whole entry): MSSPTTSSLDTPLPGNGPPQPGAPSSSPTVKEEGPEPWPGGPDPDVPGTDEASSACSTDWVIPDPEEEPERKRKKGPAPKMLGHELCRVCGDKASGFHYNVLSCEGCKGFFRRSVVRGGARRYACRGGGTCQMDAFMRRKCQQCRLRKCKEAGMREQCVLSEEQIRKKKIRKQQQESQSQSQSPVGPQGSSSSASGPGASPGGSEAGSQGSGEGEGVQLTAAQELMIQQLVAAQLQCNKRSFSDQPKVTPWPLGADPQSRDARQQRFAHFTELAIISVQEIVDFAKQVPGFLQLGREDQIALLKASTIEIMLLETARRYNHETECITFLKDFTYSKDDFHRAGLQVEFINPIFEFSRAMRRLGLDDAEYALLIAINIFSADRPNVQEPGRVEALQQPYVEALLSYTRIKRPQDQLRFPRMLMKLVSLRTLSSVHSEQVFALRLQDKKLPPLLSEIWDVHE

fMet-Leu-Phe receptor = biological target: T4, fMet-Leu-Phe receptor (Homo sapiens, UniProt P21462); experiment: formyl peptide receptor binders – dose response (AID 519); format: functional
T4 sequence (P21462 whole entry): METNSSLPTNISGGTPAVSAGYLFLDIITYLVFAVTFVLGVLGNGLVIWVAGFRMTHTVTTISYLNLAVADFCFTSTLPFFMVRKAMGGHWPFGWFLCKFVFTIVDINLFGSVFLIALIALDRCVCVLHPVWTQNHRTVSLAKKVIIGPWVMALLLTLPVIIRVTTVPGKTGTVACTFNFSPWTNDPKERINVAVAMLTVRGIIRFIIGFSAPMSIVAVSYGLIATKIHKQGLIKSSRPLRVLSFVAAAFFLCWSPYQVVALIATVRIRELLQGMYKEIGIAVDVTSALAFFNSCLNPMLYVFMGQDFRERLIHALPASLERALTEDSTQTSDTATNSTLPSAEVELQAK

[9] = biological target: T5, Microphthalmia-associated transcription factor (Homo sapiens, UniProt O75030); experiment: reducers of TRPM1 reporter luminescence, concentration series – cell-based, SK-MEL-5, cherry-picked, set 3, MITF inhibitor project, dose response (AID 493073); format: functional;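 note: SK-MEL-5 melanoma cells with luciferase driven by the MITF target TRPM1 promoter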
T5 sequence (O75030 whole entry): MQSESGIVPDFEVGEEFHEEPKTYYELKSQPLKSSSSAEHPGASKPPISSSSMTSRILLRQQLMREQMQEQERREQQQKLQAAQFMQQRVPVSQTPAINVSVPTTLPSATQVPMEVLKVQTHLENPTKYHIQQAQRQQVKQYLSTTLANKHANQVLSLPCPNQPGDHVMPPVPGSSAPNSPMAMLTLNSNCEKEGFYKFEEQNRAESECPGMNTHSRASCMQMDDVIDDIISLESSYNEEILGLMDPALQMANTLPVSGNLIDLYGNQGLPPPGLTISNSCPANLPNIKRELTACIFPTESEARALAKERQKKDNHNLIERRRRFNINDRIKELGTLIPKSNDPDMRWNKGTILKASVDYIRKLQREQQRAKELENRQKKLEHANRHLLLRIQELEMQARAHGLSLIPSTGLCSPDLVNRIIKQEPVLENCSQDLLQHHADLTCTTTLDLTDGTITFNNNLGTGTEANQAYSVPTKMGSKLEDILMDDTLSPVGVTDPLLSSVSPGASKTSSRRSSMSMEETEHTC

[10] = A549 cell cytotoxicity, dose response, cytotoxicity control, plate reader, cherry-pick, antagonist series (AID 743412); format: functional, cell-based
[11] = toxicity toward HepG2 liver cells – cell-based, plate reader, cherry-pick, antagonist series, cytotoxicity control, dose response (AID 743416); format: functional
[12] = blockers of bursicon-stimulated LGR2 cAMP reporter – cell-based, HEK293, CRE-luciferase reporter, cherry pick, set 2, dose response (AID 743343); format: functional;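 note: transfected cells were stimulated with diluted bursicon conditioned medium after compound addition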
[13] = blockade of melanocortin 4 receptor signaling – cell-based, plate reader, cherry pick, counter-screen for LGR2 antagonist project, dose response (AID 743444); format: functional;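 note: transfected HEK 293 cells stimulated with alpha-MSH peptide; potency of inhibitors of the alpha-MSH evoked signal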
[14] = viability loss in HEK293 cells – cell-based, plate reader, cherry-picked samples, cytotoxicity control, dose response (AID 743446); format: functional

Chain of Melanocortin receptor 4 (P32245 whole entry): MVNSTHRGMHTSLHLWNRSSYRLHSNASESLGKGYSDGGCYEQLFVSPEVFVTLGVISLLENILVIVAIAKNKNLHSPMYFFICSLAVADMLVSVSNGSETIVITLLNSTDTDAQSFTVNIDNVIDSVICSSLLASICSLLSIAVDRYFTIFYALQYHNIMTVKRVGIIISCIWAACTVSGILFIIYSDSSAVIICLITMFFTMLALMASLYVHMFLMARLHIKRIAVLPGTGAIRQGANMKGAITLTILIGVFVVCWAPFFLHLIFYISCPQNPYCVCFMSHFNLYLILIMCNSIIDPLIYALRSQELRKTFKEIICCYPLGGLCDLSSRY
Chain of Cytochrome P450 2C9 (P11712 whole entry): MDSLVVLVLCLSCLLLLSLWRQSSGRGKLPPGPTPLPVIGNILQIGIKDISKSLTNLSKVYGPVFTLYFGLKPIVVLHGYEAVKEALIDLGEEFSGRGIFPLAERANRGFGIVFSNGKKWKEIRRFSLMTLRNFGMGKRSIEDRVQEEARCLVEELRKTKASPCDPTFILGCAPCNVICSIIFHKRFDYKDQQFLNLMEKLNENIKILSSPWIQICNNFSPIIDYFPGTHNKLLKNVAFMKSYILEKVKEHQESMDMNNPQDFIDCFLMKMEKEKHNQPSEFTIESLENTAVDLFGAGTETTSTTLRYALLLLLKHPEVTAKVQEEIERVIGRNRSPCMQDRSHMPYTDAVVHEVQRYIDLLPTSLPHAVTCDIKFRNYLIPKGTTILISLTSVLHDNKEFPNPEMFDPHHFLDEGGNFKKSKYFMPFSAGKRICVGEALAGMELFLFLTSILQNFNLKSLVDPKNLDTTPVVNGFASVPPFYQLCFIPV

For `CC(/C=C/C=C/c1ccccc1)=N/NC(=O)CNc1ccccc1C`, the EC50 (Melanocortin receptor 4) was > 89.3 µM (inactive).

With `CN(C)CCCN(C(=O)CCOc1ccccc1)c1nc2ccc(F)cc2s1` the AC50 [1] was 12.8 µM (active).

In the case of `Cc1ccc(-c2ccc([C@H]3[C@@H]4CN(C(=O)Nc5ccc(C(F)(F)F)cc5)C[C@H]3N4)cc2)cc1`, the AC50 [1] was 9.39 µM (active), the AC50 [2] was 3.4 µM (active) and the AC50 [3] was 13.1 µM (active).

With `O=C(Nc1ccccc1F)N1CCCCN2[C@@H](CO)[C@H](c3ccc(C#Cc4ccccc4)cc3)[C@@H]2C1` the AC50 [2] was 0.392 µM (active) and the AC50 [3] was 10.3 µM (active).

For `C[C@@H]1CN([C@H](C)CO)S(=O)(=O)c2ccc(C#Cc3ccccc3F)cc2O[C@@H]1CN(C)C(=O)c1ccc2c(c1)OCO2`, the AC50 [4] was 4.28 µM (active) and the AC50 [5] was 20.6 µM (active).

In the case of `C[C@@H]1CN([C@@H](C)CO)S(=O)(=O)c2ccc(C#Cc3ccncc3)cc2O[C@@H]1CN(C)C(=O)C1CCOCC1`, the AC50 [4] was 0.466 µM (active).

With `CCOc1ccc(NC(=S)NC(=O)/C=C/c2ccc(C)cc2)c([N+](=O)[O-])c1` the IC50 [6] was > 50 µM (not active), the AC50 (Cytochrome P450 1A2) was 15.8 µM (inconclusive) and the AC50 (Cytochrome P450 2C9) was 3.55 µM (inconclusive). For the same compound, the EC50 (Melanocortin receptor 4) was > 89.2 µM (inactive).

With `C(=C\c1ccc([C@@H]2[C@@H]3CN(Cc4cccnc4)C[C@H]2N3)cc1)/c1ccccc1` the AC50 [2] was < 0.3 µM (active) and the AC50 [3] was 10.8 µM (active).

For `Oc1ccccc1-c1cc(-c2ccccc2)no1`, the IC50 [7] was > 67.5 µM (inactive), the EC50 (cells) was > 67.5 µM (inactive) and the EC50 [8] was > 67.5 µM (inactive).

In the case of `COc1cc(C2C(C(=O)c3ccc4c(c3)CC(C)O4)=C(O)C(=O)N2CCCn2ccnc2)ccc1O` (stereo unspecified), the Ki (fMet-Leu-Phe receptor) was 57.5 µM (inactive).

In the case of `Cc1cc(C)n(-c2ccc(C(=O)Nc3ccc(C)c(S(=O)(=O)N4CCOCC4)c3)cc2)n1`, the AC50 [9] was 4.54 µM (active), the AC50 [10] was > 52 µM (inactive) and the AC50 [11] was 33.8 µM (active). The AC50 [12] was 18.1 µM (active), the AC50 [13] was 13.4 µM (active) and the AC50 [14] was 25.4 µM (active).
